Literature values in US11712422B2, “Pharmaceutical compositions comprising activated carbon” (FERRING B.V., priority 2012, dated 2023).

c1ccc2[nH]ccc2c1 [Indole]
Log P: 2.14
